Experimental data from the supplement of paper PMC10883282.

What was measured:
Assay in all cases: relative viability vs DMSO control (72 h) (fraction); higher = more viable cells
[1] = system: KHOS-NP
Summary of the method: (§1)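 Sarcoma cell lines were plated in 384 wells to reach 80–90% confluence, treated after 24 h with 2.5 µl of serially diluted compound and held 72 h at 37 °C, 5% CO2. Relative viability was taken as percent growth from ATPLite readings, averaged over up to triplicate wells. The values were rescaled so that 1 marks full and 0 marks none.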

[2] = system: RD
Summary of the method: as §1

[3] = system: SK-ES-1
Summary of the method: as §1

[4] = system: MES-SA
Summary of the method: as §1

[5] = system: A204
Summary of the method: as §1

[6] = system: G401
Summary of the method: as §1

[7] = system: HS729
Summary of the method: as §1

[8] = system: VA-ES-BJ
Summary of the method: as §1

[9] = system: SW684
Summary of the method: as §1

[10] = system: SW872
Summary of the method: as §1

[11] = system: SK-LMS-1
Summary of the method: as §1

[12] = system: SYO-1
Summary of the method: as §1

CCc1cnn2c(NCc3ccc[n+]([O-])c3)cc(N3CCCC[C@H]3CCO)nc12 [Dinaciclib]
Settings | relative viability
[1], 0.00017 µM | 1.03
[1], 0.00051 µM | 1.05
[1], 0.00152 µM | 1.06
[1], 0.00457 µM | 1.07
[1], 0.01372 µM | 0.836
[1], 0.04115 µM | 0.183
[1], 0.1235 µM | 0.153
[1], 0.3704 µM | 0.163
[1], 1.111 µM | 0.164
[1], 3.333 µM | 0.162
[1], 10 µM | 0.137
[2], 0.00017 µM | 0.828
[2], 0.00051 µM | 0.851
[2], 0.00152 µM | 0.821
[2], 0.00457 µM | 0.736
[2], 0.01372 µM | 0.504
[2], 0.04115 µM | 0.163
[2], 0.1235 µM | 0.162
[2], 0.3704 µM | 0.137
[2], 1.111 µM | 0.119
[2], 3.333 µM | 0.103
[2], 10 µM | 0.0835
[3], 0.00017 µM | 0.939
[3], 0.00051 µM | 1
[3], 0.00152 µM | 0.939
[3], 0.00457 µM | 0.79
[3], 0.01372 µM | 0.411
[3], 0.04115 µM | 0.0163
[3], 0.1235 µM | 0.0154
[3], 0.3704 µM | 0.00863
[3], 1.111 µM | 0.00557
[3], 3.333 µM | 0.000967
[3], 10 µM | -0.000867
[4], 0.00017 µM | 0.994
[4], 0.00051 µM | 1.04
[4], 0.00152 µM | 0.957
[4], 0.00457 µM | 0.912
[4], 0.01372 µM | 0.383
[4], 0.04115 µM | 0.0374
[4], 0.1235 µM | 0.0354
[4], 0.3704 µM | 0.0357
[4], 1.111 µM | 0.0288
[4], 3.333 µM | 0.0272
[4], 10 µM | 0.0262
[5], 0.00017 µM | 0.998
[5], 0.00051 µM | 1.02
[5], 0.00152 µM | 0.9831
[5], 0.00457 µM | 0.913
[5], 0.01372 µM | 0.482
[5], 0.04115 µM | 0.247
[5], 0.1235 µM | 0.235
[5], 0.3704 µM | 0.199
[5], 1.111 µM | 0.187
[5], 3.333 µM | 0.179
[5], 10 µM | 0.18
[6], 0.00017 µM | 0.997
[6], 0.00051 µM | 0.974
[6], 0.00152 µM | 0.989
[6], 0.00457 µM | 0.915
[6], 0.01372 µM | 0.46
[6], 0.04115 µM | 0.089
[6], 0.1235 µM | 0.0853
[6], 0.3704 µM | 0.0974
[6], 1.111 µM | 0.0916
[6], 3.333 µM | 0.0843
[6], 10 µM | 0.072
[7], 0.00017 µM | 1.05
[7], 0.00051 µM | 1.08
[7], 0.00152 µM | 1.09
[7], 0.00457 µM | 1.06
[7], 0.01372 µM | 1.03
[7], 0.04115 µM | 0.396
[7], 0.1235 µM | 0.378
[7], 0.3704 µM | 0.397
[7], 1.111 µM | 0.386
[7], 3.333 µM | 0.371
[7], 10 µM | 0.332
[8], 0.00017 µM | 0.994
[8], 0.00051 µM | 1.011
[8], 0.00152 µM | 1.03
[8], 0.00457 µM | 0.94
[8], 0.01372 µM | 0.269
[8], 0.04115 µM | 0.222
[8], 0.1235 µM | 0.227
[8], 0.3704 µM | 0.255
[8], 1.111 µM | 0.245
[8], 3.333 µM | 0.253
[8], 10 µM | 0.247
[9], 0.00017 µM | 0.96
[9], 0.00051 µM | 1.01
[9], 0.00152 µM | 1.02
[9], 0.00457 µM | 0.964
[9], 0.01372 µM | 0.669
[9], 0.04115 µM | 0.713
[9], 0.1235 µM | 0.71
[9], 0.3704 µM | 0.713
[9], 1.111 µM | 0.689
[9], 3.333 µM | 0.7
[9], 10 µM | 0.71
[10], 0.00017 µM | 1.01
[10], 0.00051 µM | 1.01
[10], 0.00152 µM | 1.01
[10], 0.00457 µM | 1.03
[10], 0.01372 µM | 0.947
[10], 0.04115 µM | 0.412
[10], 0.1235 µM | 0.279
[10], 0.3704 µM | 0.268
[10], 1.111 µM | 0.259
[10], 3.333 µM | 0.256
[10], 10 µM | 0.245
[11], 0.00017 µM | 1.06
[11], 0.00051 µM | 1.05
[11], 0.00152 µM | 1.07
[11], 0.00457 µM | 1.03
[11], 0.01372 µM | 0.817
[11], 0.04115 µM | 0.325
[11], 0.1235 µM | 0.309
[11], 0.3704 µM | 0.333
[11], 1.111 µM | 0.341
[11], 3.333 µM | 0.34
[11], 10 µM | 0.353
[12], 0.00017 µM | 0.982
[12], 0.00051 µM | 0.998
[12], 0.00152 µM | 0.982
[12], 0.00457 µM | 0.908
[12], 0.01372 µM | 0.28
[12], 0.04115 µM | 0.248
[12], 0.1235 µM | 0.256
[12], 0.3704 µM | 0.294
[12], 1.111 µM | 0.288
[12], 3.333 µM | 0.295
[12], 10 µM | 0.305
